Reference: patent publication US10233186B2, “Inhibitors of activin receptor-like kinase” (BLUEPRINT MEDICINES CORPORATION, priority 2016, dated 2019)

Tests used:
human ALK2 R206H = target: T1, human ALK2 R206H (Homo sapiens, UniProt Q04771, R206H); test: Cell-based ALK2-R206H cell activity assay (Smad1-Ser463/Ser465 phosphorylation by AlphaLISA in HEK293-ALK2-R206H cells); conditions: read-out: Cell Line (Cell Assay IC50)
T1 construct: expressed in transfected cells; host or cells: HEK293 (ATCC CRL1573), lentivirus transduction, blasticidin selection
T1 sequence (Q04771 21-509 R206H): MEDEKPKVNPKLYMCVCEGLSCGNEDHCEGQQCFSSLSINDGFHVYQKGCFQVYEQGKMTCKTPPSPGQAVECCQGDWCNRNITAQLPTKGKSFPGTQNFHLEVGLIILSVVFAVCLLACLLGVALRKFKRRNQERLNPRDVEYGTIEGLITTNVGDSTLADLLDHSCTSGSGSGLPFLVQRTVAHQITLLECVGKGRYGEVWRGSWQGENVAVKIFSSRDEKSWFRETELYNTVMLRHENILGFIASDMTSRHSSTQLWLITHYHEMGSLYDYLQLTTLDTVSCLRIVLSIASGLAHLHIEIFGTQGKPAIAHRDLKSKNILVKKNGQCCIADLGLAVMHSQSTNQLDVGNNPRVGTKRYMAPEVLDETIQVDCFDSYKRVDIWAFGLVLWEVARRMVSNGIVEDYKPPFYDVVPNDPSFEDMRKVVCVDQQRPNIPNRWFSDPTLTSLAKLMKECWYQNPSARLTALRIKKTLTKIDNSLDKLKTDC
Summary of the method: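 Stable HEK293 cells expressing C-terminally FLAG-tagged human ALK2 R206H (lentiviral, blasticidin-selected) were treated with compounds in 10-point, 3-fold dilutions from 10 μM or 1 μM top, in duplicate. Smad1 Ser463/Ser465 phosphorylation was read by AlphaLISA.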

[1] = target: T2, ALK2 R206H (GST-tagged mutant ALK2) (Homo sapiens, UniProt Q04771, R206H); test: ALK binding assay (LANTHASCREEN TR-FRET competitive binding, displacement of Kinase Tracer 178); conditions: ALK2 R206H, LANTHASCREEN TR-FRET competitive binding; read-out: Binding Assay (IC50)
T2 construct: purchased Carna Bioscience or ThermoFisher 09-148 or PV6232
T2 sequence (Q04771 21-509 R206H): T1 sequence (Q04771 21-509 R206H)

| SMILES | IC50 (human ALK2 R206H) | IC50 [1] |
| --- | --- | --- |
| CCOC(=O)N1CCN(c2ccnn3cc(-c4ccc(C5CCN(CC)CC5)cc4)cc23)C[C@H]1C [Compound 286] | 0.1 to 0.5 µM | < 0.01 µM |
| CC(C)N1CCC(c2ccc(-c3cc4c(N5CCN(C(=O)OC6CCC6)CC5)ccnn4c3)cc2)CC1 [Compound 621] | 0.1 to 0.5 µM | < 0.01 µM |
| O=C(C1CC1)N1CCN(c2ccnn3cc(-c4ccc(N5CCNCC5)cc4OC(F)F)cc23)CC1 [Compound 363] | 0.1 to 0.5 µM | < 0.01 µM |
| COC1(c2ccc(-c3cc4c(N5CCN(C(=O)[C@H]6C[C@H](C#N)C6)CC5)ccnn4c3)cc2)CCN([C@@H](C)CO)CC1 [Compound 740] | < 0.1 µM | < 0.01 µM |
| CC(C)N1CCC(c2ccc(-c3cc4c(N5CCN(C(=O)NCC6COC6)CC5)ccnn4c3)cc2)CC1 [Compound 661] | 0.1 to 0.5 µM | < 0.01 µM |
| COC1(c2ccc(-c3cc4c(N5CCN(C(=O)NC(C)C)CC5)ccnn4c3)cc2F)CCN(C(C)C)CC1 [Compound 720] | < 0.1 µM | < 0.01 µM |
| CCN1CCC(c2ccc(-c3cc4c(N5CCN(C(=O)N6CCC(O)CC6)CC5)ccnn4c3)cc2)CC1 [Compound 423] | 0.1 to 0.5 µM | < 0.01 µM |
| CCN1CCN(c2ccc(-c3cc4c(N5CCN(C(=O)C6CC6(F)F)CC5)ccnn4c3)cc2)CC1 (centres unmarked) [Compound 361] | 0.1 to 0.5 µM | < 0.01 µM |
| CCOC1(c2ccc(-c3cc4c(N5CCN(C(=O)OC[C@@H](C)F)CC5)ccnn4c3)nc2)CCN(C(C)C)CC1 [Compound 867] | < 0.1 µM | < 0.01 µM |
| O=C(C1CC1)N1CCN(c2ccnn3cc(-c4ccc5c(c4)COC54CNC4)cc23)CC1 [Compound 120] | 0.1 to 0.5 µM | < 0.01 µM |
| COC[C@H](C)N1CCC(OC)(c2ccc(-c3cc4c(N5CCN(C(=O)C6CC6)CC5)ccnn4c3)nc2)CC1 [Compound 711] | < 0.1 µM | < 0.01 µM |
| CCN1CCC(c2ccc(-c3cc4c(N5CCN(C(=O)OC6CCC6)CC5)ccnn4c3)cc2)CC1 [Compound 322] | < 0.1 µM | < 0.01 µM |
| CCN1CCN(c2ccc(-c3cc4c(N5CCN(C(=O)[C@H]6C[C@H](O)C6)CC5)ccnn4c3)cc2)CC1 [Compound 336] | < 0.1 µM | < 0.01 µM |
| CC(C)N1CCC[C@@H](c2ccc(-c3cc4c(N5CCN(C(=O)OCCC#N)CC5)ccnn4c3)cc2)C1 [Compound 810] | < 0.1 µM | < 0.01 µM |
| Cc1cc(-c2cc3c(N4CCN(C(=O)C5CC5)CC4)ccnn3c2)ccc1[C@@H]1CCN(C(C)C)C1 [Compound 503] | 0.1 to 0.5 µM | < 0.01 µM |
| CCN1CCN(c2ccc(-c3cc4c(N5CCN(C(=O)C6CC6)CC5)ccnn4c3)cc2)C[C@@H]1C [Compound 265] | < 0.1 µM | < 0.01 µM |
| CCNC(=O)N1CCN(c2ccnn3cc(-c4ccc(C5(O)CN(C(C)C)C5)cc4)cc23)CC1 [Compound 235] | 0.1 to 0.5 µM | < 0.01 µM |
| CC(C)N1CCNC(c2ccc(-c3cc4c(N5CCN(C(=O)C6CC6)CC5)ccnn4c3)cc2)C1 (centres unmarked) [Compound 516] | < 0.1 µM | < 0.01 µM |

| SMILES | IC50 (human ALK2 R206H) | IC50 [1] |
| --- | --- | --- |
| CCN1CCN(c2ccc(-c3cc4c(N5CCN(C(=O)C6CC6)CC5)ccnn4c3)cc2)CC1 [Compound 213] | < 0.1 µM | < 0.01 µM |
| CCN1CCC(c2ccc(-c3cc4c(N5CCN(C(=O)C6CCC(C)CC6)CC5)ccnn4c3)cc2)CC1 (centres unmarked) [Compound 415] | < 0.1 µM | < 0.01 µM |
| CCOC(=O)N1CCN(c2ccnn3cc(-c4ccc([C@@]5(OCC)CCCNC5)cn4)cc23)CC1 [Compound 788] | < 0.1 µM | < 0.01 µM |
| NC1CCN(c2ccc(-c3cc4c(N5CCN(C(=O)C6CC6)CC5)ccnn4c3)cc2)CC1 [Compound 158] | 0.1 to 0.5 µM | < 0.01 µM |
| CC(C)N1CC[C@](O)(c2ccc(-c3cc4c(N5CCN(C(=O)C6CC6)CC5)ccnn4c3)nc2)C1 [Compound 527] | < 0.1 µM | < 0.01 µM |
| CO[C@]1(c2ccc(-c3cc4c(N5CCN(C(=O)OC6COC6)CC5)ccnn4c3)cc2)CCCNC1 [Compound 601] | < 0.1 µM | < 0.01 µM |
| CCOC(=O)N1CCN(c2ccnn3cc(-c4ccc(C5(OC)CCN(C6COC6)CC5)cn4)cc23)CC1 [Compound 834] | < 0.1 µM | < 0.01 µM |
| CC(C)N1C[C@H](c2ccc(-c3cc4c(N5CCN(C(=O)C6CC6)CC5)ccnn4c3)cc2)C[C@@H]1C [Compound 507] | < 0.1 µM | < 0.01 µM |
| CCN1CCC(c2ccc(-c3cc4c(N5CCN(C(=O)C6CC6)CC5)ccnn4c3)cc2)C(F)(F)C1 (centres unmarked) [Compound 355] | > 0.5 µM | 0.01 to 0.05 µM |
| COC1(c2ccc(-c3cc4c(N5CCN(C(=O)OC6COC6)CC5)ccnn4c3)nc2)CCN(C2COC2)CC1 [Compound 733] | < 0.1 µM | < 0.01 µM |
| CC(C)NC(C)(C)c1ccc(-c2cc3c(N4CCN(C(=O)C5CC5)CC4)ccnn3c2)cc1 [Compound 473] | < 0.1 µM | < 0.01 µM |
| CC(C)N1CCC[C@@H](c2ccc(-c3cc4c(N5CCN(C(=O)OC6(C#N)COC6)CC5)ccnn4c3)cc2)C1 [Compound 840] | 0.1 to 0.5 µM | < 0.01 µM |
| CC(C)N1CCC(c2ccc(-c3cc4c(N5CCN(C(=O)OC6COC6)[C@H](C)C5)ccnn4c3)cc2)CC1 [Compound 669] | < 0.1 µM | < 0.01 µM |
| CCO[C@]1(c2ccc(-c3cc4c(N5CCN(C(=O)C6CC6)CC5)ccnn4c3)cc2)CCCN(C(C)C)C1 [Compound 657] | < 0.1 µM | < 0.01 µM |
| COC1(c2ccc(-c3cc4c(N5CCN(C(=O)C6CC6)CC5)ccnn4c3)nc2)CCNCC1 [Compound 491] | < 0.1 µM | < 0.01 µM |
| CCO[C@@]1(c2ccc(-c3cc4c(N5CCN(C(=O)OC6COC6)CC5)ccnn4c3)cc2)CCCNC1 [Compound 816] | < 0.1 µM | < 0.01 µM |
| CCOC(=O)N1CCN(c2ccnn3cc(-c4ccc(C5CCN(C(C)C)CC5)c(F)c4)cc23)CC1 [Compound 357] | < 0.1 µM | < 0.01 µM |

Results, then the molecule that gave them:

| IC50 (human ALK2 R206H) | IC50 [1] | SMILES |
| --- | --- | --- |
| < 0.1 µM | < 0.01 µM | CC(C)N1CCC[C@@](F)(c2ccc(-c3cc4c(N5CCN(C(=O)OC6COC6)CC5)ccnn4c3)nc2)C1 [Compound 695] |
| < 0.1 µM | < 0.01 µM | CCN1CCN(c2ccc(-c3cc4c(N5CCN(C(=O)[C@H]6CC[C@H](O)CC6)CC5)ccnn4c3)cc2)CC1 [Compound 422] |
| < 0.1 µM | < 0.01 µM | CCN(CC)[C@@H](CO)c1ccc(-c2cc3c(N4CCN(C(=O)OC5COC5)CC4)ccnn3c2)cc1 [Compound 805] |
| < 0.1 µM | < 0.01 µM | CCOC(=O)N1CCN(c2ccnn3cc(-c4ccc([C@@H](N)CO)cc4)cc23)CC1 [Compound 754] |
| < 0.1 µM | < 0.01 µM | CC(C)NC(=O)N1CCN(c2ccnn3cc(-c4ccc([C@]5(C)CN(C(C)C)CCN5C)cc4)cc23)CC1 [Compound 671] |
| < 0.1 µM | < 0.01 µM | CC(C)NC(=O)N1CCN(c2ccnn3cc(-c4ccc([C@@H]5CN(C(C)C)CC[C@H]5OC(F)F)cc4)cc23)CC1 [Compound 869] |
| < 0.1 µM | < 0.01 µM | CC(C)NC(=O)N1CCN(c2ccnn3cc(-c4ccc([C@@H]5CCCN(C(C)C)C5)cc4)cc23)CC1 [Compound 577] |
| < 0.1 µM | < 0.01 µM | CO[C@@]1(c2ccc(-c3cc4c(N5CCN(C(=O)NC(C)C)CC5)ccnn4c3)nc2)CCCNC1 [Compound 786] |
| < 0.1 µM | < 0.01 µM | CC(C)NC(=O)N1CCN(c2ccnn3cc(-c4ccc([C@@]5(C)CN(C(C)C)CCN5)cc4)cc23)CC1 [Compound 633] |
| < 0.1 µM | < 0.01 µM | N#C[C@H]1CC[C@H](C(=O)N2CCN(c3ccnn4cc(-c5ccc(C6CNCCO6)cc5)cc34)CC2)CC1 (some centres unmarked) [Compound 375] |
| < 0.1 µM | < 0.01 µM | CCOC(=O)N1CCN(c2ccnn3cc(-c4ccc([C@@H]5CCCN(C(C)C)C5)cn4)cc23)CC1 [Compound 544] |
| < 0.1 µM | < 0.01 µM | CC(C)NC(=O)N1CCN(c2ccnn3cc(-c4cnn([C@H]5CCCNC5)c4)cc23)CC1 [Compound 470] |
| < 0.1 µM | < 0.01 µM | CC(C)N1CC[C@H](c2ccc(-c3cc4c(N5CCN(C(=O)[C@H]6C[C@H](C#N)C6)CC5)ccnn4c3)cc2)C1 [Compound 366] |
| < 0.1 µM | < 0.01 µM | CC(C)N1CCN[C@](C)(c2ccc(-c3cc4c(N5CCN(C(=O)C6CC6)CC5)ccnn4c3)cc2)C1 [Compound 570] |
| < 0.1 µM | < 0.01 µM | CC(C)N1CCC[C@@H](c2ccc(-c3cc4c(N5CCN(C(=O)C6CC6)CC5)ccnn4c3)cc2)C1 [Compound 248] |
| < 0.1 µM | < 0.01 µM | CC(C)N1CC[C@@H](c2ccc(-c3cc4c(N5CCN(C(=O)[C@H]6C[C@H](O)C6)CC5)ccnn4c3)cc2)C1 [Compound 321] |
| < 0.1 µM | < 0.01 µM | CC(C)NC(=O)N1CCN(c2ccnn3cc(-c4ccc([C@H]5CCCN(C(C)C)C5)cc4)cc23)CC1 [Compound 578] |
